The source of these data is patent US11299485B2, “Thiophene derivative and use thereof” (FUJIMOTO CO., LTD., priority 2018, dated 2022).

What all share (type): cell-based
In test [1] the test system is Pfeiffer cells. In words: Human diffuse large B-cell lymphoma cell line Pfeiffer proliferation suppression test. To be noted: 144 h, compound 10 μM, 3 days + re-plating with compound 3 days, WST-8, read-out: cell survival rate (% of control) Pfeiffer. An excerpt:
Example 52: Human Diffuse Large B-Cell Lymphoma Cell Line Pfeiffer Proliferation Suppression Test
(§1) Pfeiffer cells (ATCC, CRL-2632) were suspended in medium B, and diluted as appropriate with 0.4% trypan blue solution (Sigma-Aldrich Co. LLC.). The number of viable cells was counted with a hemocytometer (Funakoshi Co., Ltd.). A cell suspension obtained by diluting with medium B such that the value obtained was 1.3×10^5 cells/mL was dispensed into a Falcon 96 well flat bottom plate (Corning Incorporated) at 75 μL/well, and culture was started at 37° C. under 5% CO2 stream. The next day, a solution obtained by diluting 4 mM DMSO solution of the test compound 100-fold with medium B was added by 25 μL to each well (final concentration of test compound 10 μM). 25 μL of a solution obtained by diluting DMSO 100-fold with medium B was added to the control well. After culturing at 37° C. in a 5% CO2 stream for 3 days, the cell culture medium was uniformly suspended with a multi channel pipette, 14 μL per well was transferred into another new Falcon 96 well flat bottom plate. A solution obtained by diluting 4 mM DMSO solution of the same test compound as the first time 400-fold with medium B was added by 86 μL to a total amount of 100 μL (final concentration of test compound 10 μM). After culturing at 37° C. in a 5% CO2 stream for 3 days, the cell proliferation activity was measured according to the instruction manual attached to WST-8 Kit (KISHIDA CHEMICAL Co., Ltd.).

Test [2] deals with REC-1 cells. The test can be described thus: Human mantle cell lymphoma cell line REC-1 proliferation suppression test. To be noted: Rec1, 72 h, compound 10 μM, 3 days, WST-8, read-out: cell survival rate (% of control) REC-1. The method, then: Example 53: Human Mantle Cell Lymphoma Cell Line REC-1 Proliferation Suppression Test
as §1, with “REC-1” for “Pfeiffer”, “CRL-3004)” for “CRL-2632)”, “cell” for “cell culture medium was uniformly suspended with a multi channel pipette, 14 μL per well was transferred into another new Falcon 96 well flat bottom plate. A solution obtained by diluting 4 mM DMSO solution of the same test compound as the first time 400-fold with medium B was added by 86 μL to a total amount of 100 μL (final concentration of test compound 10 μM). After culturing at 37° C. in a 5% CO2 stream for 3 days, the cell”

The subject of test [3] is MM.1S cells. In words: Human myeloma cell line MM.1S proliferation suppression test. The settings on record: MM1.S, 72 h, compound 10 μM, 3 days, WST-1 or WST-8, read-out: cell survival rate (% of control) MM.1S. The protocol: Example 51: Human Myeloma Cell Line MM.1S Proliferation Suppression Test
MM.1S cells (ATCC, CRL-2974) were suspended in 10% fetal calf serum (Thermo Fisher Scientific)-containing RPMI1640 medium (ATCC, hereinafter abbreviated as medium B), and diluted as appropriate with 0.4% trypan blue solution (Sigma-Aldrich Co. LLC.). The number of viable cells was counted with a hemocytometer (ERMA INC.). It was diluted with medium B such that the value obtained was 2×10^5 cells/mL. On the other hand, 50 μL of a solution obtained by diluting 4 mM DMSO solution of the test compound 200-fold with medium B was added to each well of a Falcon 96-well flat bottom plate (Corning Incorporated), and the above-mentioned cell suspension was dispensed at 50 μL/well (final concentration of test compound 10 μM). 50 μL of a solution obtained by diluting DMSO 200-fold with medium B was added to the control well. After culturing at 37° C. in a 5% CO2 stream for 3 days, the cell proliferation activity was measured using WST-1 (DOJINDO LABORATORIES) or WST-8 Kit (KISHIDA CHEMICAL Co., Ltd.) and according to each instruction manual attached thereto.
On the technique in general: Formazan colour is commonly taken as a measure of viable cells.

Test [4] relates to TNF-α production. In words: Human TNF-α production suppression test (LPS-stimulated peripheral blood mononuclear cells, ELISA). To be noted: PBMC, 24 hr; for inhibition at 10 µg/mL: compound 10 μg/mL, control well = 100, read-out: TNF-α production suppressive rate (%). The method, then: Example 50: Human TNF-α Production Suppression Test
Peripheral blood of a healthy adult was collected in a vacuum blood collection tube (Terumo, containing EDTA/2Na), and then diluted two-fold with an equal volume of OTSUKA NORMAL SALINE (Otsuka Pharmaceutical Co., Ltd.). The diluted blood was mixed with Lymphoprep (AXIS-SHIELD) in half the volume of the diluted blood, dispensed into a 15 mL conical tube, and centrifuged at room temperature for 20 min (2,100 rpm). The mononuclear cells accumulated at the interface between Lymphoprep and plasma was transferred to a 50 mL conical tube, diluted with OTSUKA NORMAL SALINE, and the mononuclear cells suspension was centrifuged at room temperature for 10 min (1,150 rpm) and then the supernatant was removed. The mononuclear cells fraction obtained as a precipitate was suspended in an appropriate amount of 10% fetal calf serum (Thermo Fisher Scientific)-containing RPMI1640 medium (Thermo Fisher Scientific, hereinafter abbreviated as medium A), and diluted as appropriate with 0.4% trypan blue solution (Sigma-Aldrich Co. LLC.). The number of viable cells was counted with a hemocytometer (ERMA INC.). It was diluted with medium A such that the value obtained was 5×10^5 cells/mL. On the other hand, 75 μL of medium A, 5 μL of 0.4 mg/mL test compound solution (DMSO solution 10-fold diluted with medium A), and 20 μL of 10 μg/mL lipopolysaccharide (Sigma-Aldrich Co. LLC.) solution (diluted with medium A) were each added in advance to the same well of a Falcon 96-well flat bottom plate (Corning Incorporated), and the above-mentioned cell suspension was dispensed at 0.1 mL/well. 5 μL of DMSO diluted 10-fold with medium A was added to the control well instead of the compound solution. After culturing at 37° C. in a 5% CO2 stream for 24 hr, the culture solution was centrifuged at 4° C., 1,000 rpm for 3 min and the supernatant was recovered. The content of TNF-α in the supernatant was measured using an ELISA kit (Peprotech) according to a conventional method. The amount of TNF-α produced in the well containing the test compound was determined with the amount of TNF-α produced in the control well as 100, and the suppression rate was calculated for each test.

For `O=C1CCC(n2nnc(-c3ccsc3)c2Br)C(=O)N1` (centres unmarked) [compound 48, 3-[5-bromo-4-(thiophen-3-yl)-1H-1,2,3-triazol-1-yl]piperidine-2,6-dione], the viability at 10 µM in test [1] amounted to 98%; in test [2], 98%; in test [3], 85%. Besides, the inhibition at 10 µg/mL in test [4] came out at 51%.
Take `O=C1CCC(n2cc(-c3cscc3OCc3ccccn3)nn2)C(=O)N1` (centres unmarked) [compound 34, 3-{4-[4-(pyridin-2-ylmethoxy)thiophen-3-yl]-1H-1,2,3-triazol-1-yl}piperidine-2,6-dione]: the viability at 10 µM in test [1] was 104%; in test [2], 33%; in test [3], 50%. For the same compound, the inhibition at 10 µg/mL in test [4] stood at 97%.
The matching figures for `Cl.O=C1CCC(n2cc(-c3cscc3OCc3ccc(CN4CCCC4)cc3)nn2)C(=O)N1` (centres unmarked) [compound 41, 3-(4-{4-[4-(pyrrolidin-1-ylmethyl)benzyloxy]thiophen-3-yl}-1H-1,2,3-triazol-1-yl)piperidine-2,6-dione hydrochloride]: 72%, 20%, 32% and 93%.
As for `COC(=O)c1scc(-c2cn(C3CCC(=O)NC3=O)nn2)c1OC` (centres unmarked) [compound 16, methyl 4-[1-(2,6-dioxopiperidin-3-yl)-1H-1,2,3-triazol-4-yl]-3-methoxythiophene-2-carboxylate], the viability at 10 µM was determined as 98% in test [1], 85% in test [2] and 85% in test [3]. For the same compound, the inhibition at 10 µg/mL in test [4] was determined as 100%.
Consider `CCCOc1cscc1-c1cn(C2CCC(=O)NC2=O)nn1` (centres unmarked) [compound 21, 3-[4-(4-propoxythiophen-3-yl)-1H-1,2,3-triazol-1-yl]piperidine-2,6-dione], for which the figures for the viability at 10 µM in test [1], in test [2] and in test [3] were 106%, 63% and 75%, respectively. Also, in test [4], the inhibition at 10 µg/mL came to 30%.
`O=C1CCC(n2cc(-c3cscc3Cl)nn2)C(=O)N1` (centres unmarked) [compound 14, 3-[4-(4-chlorothiophen-3-yl)-1H-1,2,3-triazol-1-yl]piperidine-2,6-dione]: the values for the viability at 10 µM in test [1], in test [2] and in test [3] were 74%, 34% and 43%, respectively. Further, the inhibition at 10 µg/mL in test [4] was 75%.
The matching figures for `O=C1CCC(n2cc(-c3cscc3OCc3ccc(CN4CCOCC4)cc3)nn2)C(=O)N1` (centres unmarked) [compound 36, 3-(4-{4-[4-(morpholinomethyl)benzyloxy]thiophen-3-yl}-1H-1,2,3-triazol-1-yl)piperidine-2,6-dione]: 34%, 2%, 16% and 98%.
As to `COc1c(-c2cn(C3CCC(=O)NC3=O)nn2)csc1C` (centres unmarked) [compound 15, 3-[4-(4-methoxy-5-methylthiophen-3-yl)-1H-1,2,3-triazol-1-yl]piperidine-2,6-dione], the viability at 10 µM in test [1] was determined as 87%; in test [2], 36%; in test [3], 55%. The inhibition at 10 µg/mL in test [4] was 85%.
In the case of `COc1ccc(COc2cscc2-c2cn(C3CCC(=O)NC3=O)nn2)cc1` (centres unmarked) [compound 31, 3-{4-[4-(4-methoxybenzyloxy)thiophen-3-yl]-1H-1,2,3-triazol-1-yl}piperidine-2,6-dione], the viability at 10 µM was found to be 82% in test [1], 27% in test [2] and 27% in test [3]. Further, in test [4] (suppressive rate at 3 μg/mL), the inhibition at 3 µg/mL worked out at 82%.
As for `Cc1cc(-c2cn(C3CCC(=O)NC3=O)nn2)cs1` (centres unmarked) [compound 6, 3-[4-(5-methylthiophen-3-yl)-1H-1,2,3-triazol-1-yl]piperidine-2,6-dione], the viability at 10 µM in test [1] came out at 100%; in test [2], 52%; in test [3], 63%. Further, the inhibition at 10 µg/mL in test [4] was 67%.
Take `O=C1CCC(n2cc(-c3cscc3OCc3ccccc3CN3CCOCC3)nn2)C(=O)N1` (centres unmarked) [compound 40, 3-(4-{4-[2-(morpholinomethyl)benzyloxy]thiophen-3-yl}-1H-1,2,3-triazol-1-yl)piperidine-2,6-dione]: the viability at 10 µM was found to be 91% in test [1], 33% in test [2] and 35% in test [3]. The inhibition at 10 µg/mL in test [4] was 86%.
In the case of `O=C1CCC(n2cc(-c3cscc3OCC3CC3)nn2)C(=O)N1` (centres unmarked) [compound 28, 3-{4-[4-(cyclopropylmethoxy)thiophen-3-yl]-1H-1,2,3-triazol-1-yl}piperidine-2,6-dione], the viability at 10 µM turned out to be 91% in test [1], 58% in test [2] and 68% in test [3]. For the same compound, the inhibition at 10 µg/mL in test [4] stood at 37%.
`COCc1ccc(COc2cscc2-c2cn(C3CCC(=O)NC3=O)nn2)cc1` (centres unmarked) [compound 37, 3-(4-{4-[4-(methoxymethyl)benzyloxy]thiophen-3-yl}-1H-1,2,3-triazol-1-yl)piperidine-2,6-dione]: the viability at 10 µM in test [1] is 71%; in test [2] it was 17%; in test [3], 24%. The inhibition at 10 µg/mL in test [4] was found to be 81%.
With `O=C1CCC(n2cc(-c3cscc3OCc3ccncc3)nn2)C(=O)N1` (centres unmarked) [compound 33, 3-{4-[4-(pyridin-4-ylmethoxy)thiophen-3-yl]-1H-1,2,3-triazol-1-yl}piperidine-2,6-dione], the figures for the viability at 10 µM in test [1], in test [2] and in test [3] were 71%, 27% and 49%, respectively. The inhibition at 10 µg/mL in test [4] stood at 100%.
